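Protocol summary: plate cells (96-well), add compound at 5 concentrations, incubate 48 h, interpolate endpoints linearly. GI50 marks 50% less growth. The concentration for full growth arrest is given as TGI.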
Columns and labels:
Assay in all cases: growth of human tumour cells (NCI), 48 h
[1] = tested on: 786-0 renal
[2] = tested on: A498 renal
[3] = tested on: ACHN renal
[4] = tested on: BT-549 breast
[5] = tested on: CAKI-1 renal
[6] = tested on: CCRF-CEM leukemia
[7] = tested on: COLO 205 colon
[8] = tested on: DU-145 prostate
[9] = tested on: EKVX NSCLC
[10] = tested on: HCC-2998 colon
[11] = tested on: HCT-15 colon
[12] = tested on: HL-60(TB) leukemia
[13] = tested on: HOP-92 NSCLC
[14] = tested on: IGROV1 ovarian
[15] = tested on: K-562 leukemia
[16] = tested on: KM12 colon
[17] = tested on: M14 melanoma
[18] = tested on: MALME-3M melanoma
[19] = tested on: MDA-MB-231 breast
[20] = tested on: MDA-MB-435
[21] = tested on: MDA-MB-468 breast
[22] = tested on: MOLT-4 leukemia
[23] = tested on: NCI-H226 lung
[24] = tested on: NCI-H23 lung
[25] = tested on: NCI-H522 lung
[26] = tested on: OVCAR-3 ovarian
[27] = tested on: OVCAR-4 ovarian
[28] = tested on: OVCAR-5 ovarian
[29] = tested on: PC-3 prostate
[30] = tested on: RPMI-8226 leukemia
[31] = tested on: SF-539 CNS
[32] = tested on: SK-MEL-2 melanoma
[33] = tested on: SK-MEL-28 melanoma
[34] = tested on: SK-MEL-5 melanoma
[35] = tested on: SK-OV-3 ovarian
[36] = tested on: SN12C renal
[37] = tested on: SNB-19 CNS
[38] = tested on: SNB-75 CNS
[39] = tested on: SR leukemia
[40] = tested on: TK-10 renal
[41] = tested on: UACC-257 melanoma
[42] = tested on: UACC-62 melanoma
[43] = tested on: UO-31 renal
[44] = tested on: A549 NSCLC
[45] = tested on: HS 578T breast
[46] = tested on: LOX IMVI melanoma
[47] = tested on: NCI/ADR-RES ovarian
[48] = tested on: RXF 393 renal
[49] = tested on: SF-295 CNS
[50] = tested on: T-47D breast

Work on `N[C@@H](CSSC[C@H](N)C(=O)Nc1ccc(OCC2CCCC2)cc1)C(=O)Nc1ccc(OCC2CCCC2)cc1` yielded a GI50 [1] of 1640 nM, a TGI [1] of 3100 nM and a GI50 [2] of 7150 nM. It also gave a TGI [2] of 20100 nM, a GI50 [3] of 423 nM and a TGI [3] of 1490 nM. It also gave a GI50 [4] of 1460 nM, a TGI [4] of 3030 nM and a GI50 [5] of 677 nM. The TGI [5] was 1900 nM, the GI50 [6] was 170 nM and the TGI [6] was 374 nM. For the same molecule, the GI50 [7] was 3230 nM, the TGI [7] was 12000 nM and the GI50 [8] was 339 nM. The TGI [8] was 1150 nM, the GI50 [9] was 427 nM and the TGI [9] was 1540 nM. The GI50 [10] was 278 nM, the TGI [10] was 793 nM and the GI50 [11] was 230 nM. It also gave a TGI [11] of 604 nM, a GI50 [12] of 228 nM and a TGI [12] of 777 nM. The GI50 [13] was 1740 nM, the TGI [13] was 3430 nM and the GI50 [14] was 292 nM. For the same molecule, the TGI [14] was 823 nM, the GI50 [15] was 194 nM and the TGI [15] was 434 nM. The GI50 [16] was 182 nM, the TGI [16] was 364 nM and the GI50 [17] was 178 nM. For the same molecule, the TGI [17] was 344 nM, the GI50 [18] was 6710 nM and the TGI [18] was 19600 nM. The GI50 [19] was 202 nM, the TGI [19] was 422 nM and the GI50 [20] was 163 nM. The TGI [20] was 340 nM, the GI50 [21] was 539 nM and the TGI [21] was 1390 nM. It also gave a GI50 [22] of 223 nM, a TGI [22] of 501 nM and a GI50 [23] of 1720 nM. The TGI [23] was 3400 nM, the GI50 [24] was 408 nM and the TGI [24] was 1510 nM. It also gave a GI50 [25] of 1510 nM, a TGI [25] of 3030 nM and a GI50 [26] of 765 nM. It also gave a TGI [26] of 2090 nM, a GI50 [27] of 389 nM and a TGI [27] of 1650 nM. It also gave a GI50 [28] of 1140 nM, a TGI [28] of 2380 nM and a GI50 [29] of 222 nM. For the same molecule, the TGI [29] was 530 nM, the GI50 [30] was 738 nM and the TGI [30] was 2430 nM. It also gave a GI50 [31] of 461 nM, a TGI [31] of 1520 nM and a GI50 [32] of 1700 nM. The TGI [32] was 3170 nM, the GI50 [33] was 1260 nM and the TGI [33] was 2550 nM. It also gave a GI50 [34] of 871 nM, a TGI [34] of 2130 nM and a GI50 [35] of 570 nM. The TGI [35] was 1730 nM, the GI50 [36] was 460 nM and the TGI [36] was 960 nM. The GI50 [37] was 545 nM, the TGI [37] was 1190 nM and the GI50 [38] was 192 nM. The TGI [38] was 450 nM, the GI50 [39] was 214 nM and the TGI [39] was 584 nM. It also gave a GI50 [40] of 1760 nM, a TGI [40] of 3230 nM and a GI50 [41] of 1740 nM. For the same molecule, the TGI [41] was 3460 nM, the GI50 [42] was 612 nM and the TGI [42] was 1380 nM. The GI50 [43] was 716 nM and the TGI [43] was 2020 nM.

For `CC1=C(CCC=O)C2=C(C)C3(CC3)[C@@](C)(O)C(=O)C2=C1`, the GI50 [1] was 110 nM, the TGI [1] was 440 nM and the GI50 [2] was 269 nM. For the same molecule, the TGI [2] was 616 nM, the GI50 [44] was 159 nM and the TGI [44] was 4210 nM. The GI50 [3] was 78.9 nM, the TGI [3] was 636 nM and the GI50 [4] was 35.8 nM. It also gave a TGI [4] of 157 nM, a GI50 [5] of 123 nM and a TGI [5] of 855 nM. The GI50 [6] was 756 nM, the TGI [6] was over 100000 nM and the GI50 [7] was 144 nM. It also gave a TGI [7] of 303 nM, a GI50 [8] of 37.6 nM and a TGI [8] of 845 nM. For the same molecule, the GI50 [9] was 210 nM, the TGI [9] was 546 nM and the GI50 [10] was 121 nM. It also gave a TGI [10] of 261 nM, a GI50 [12] of 118 nM and a GI50 [45] of 302 nM. It also gave a TGI [45] of 1280 nM, a GI50 [14] of 62.5 nM and a TGI [14] of 312 nM. It also gave a GI50 [15] of 330 nM, a GI50 [46] of 140 nM and a TGI [46] of 350 nM. The GI50 [17] was 101 nM, the TGI [17] was 254 nM and the GI50 [18] was 135 nM. It also gave a TGI [18] of 266 nM, a GI50 [21] of 100 nM and a TGI [21] of 239 nM. The GI50 [22] was 380 nM, the GI50 [23] was 157 nM and the TGI [23] was 587 nM. For the same molecule, the GI50 [25] was 167 nM, the TGI [25] was 369 nM and the GI50 [47] was 104 nM. For the same molecule, the TGI [47] was 330 nM, the GI50 [28] was 65.6 nM and the TGI [28] was 416 nM. For the same molecule, the GI50 [30] was 444 nM, the TGI [30] was over 100000 nM and the GI50 [48] was 20.7 nM. It also gave a TGI [48] of 39.4 nM, a GI50 [49] of 222 nM and a TGI [49] of 1110 nM. The GI50 [34] was 94.6 nM, the TGI [34] was 240 nM and the GI50 [35] was 108 nM. For the same molecule, the TGI [35] was 606 nM, the GI50 [36] was 167 nM and the TGI [36] was 755 nM. For the same molecule, the GI50 [39] was 237 nM, the TGI [39] was 1120 nM and the GI50 [50] was 108 nM. The TGI [50] was 882 nM, the GI50 [40] was 218 nM and the TGI [40] was 1080 nM. For the same molecule, the GI50 [41] was 208 nM, the TGI [41] was 464 nM and the GI50 [42] was 158 nM. For the same molecule, the TGI [42] was 315 nM, the GI50 [43] was 53.4 nM and the TGI [43] was 263 nM.
